Where two headings read alike, the source gives them in different places.
Legend:
PKCε−/− and PKCε+/+ mice [1] = experiment: locomotor activity in activity chambers after intraperitoneal injection; assay type: in vivo, mouse; settings: for locomotor response (distance traveled), PKCε−/− compared to PKCε+/+: i.p.: diazepam 0.5, 1.5, 4.0 mg/kg, muscimol 0.1, 0.2, 0.4 mg/kg, MK-801 0.01, 0.02, 0.03 mg/kg
GABAA receptor = experiment: 36Cl− uptake in cortical microsacs from PKCε−/− and PKCε+/+ mice (GABAA receptor function); assay type: biochemical, mouse; settings: for activation of GABAA receptors (muscimol-stimulated Cl− uptake): 10^−12M to 10^−9M, 1 μM muscimol
PKCε−/− and PKCε+/+ mice [2] = experiment: loss of righting reflex (LORR) after intraperitoneal injection; assay type: in vivo, mouse; settings: for LORR duration / sensitivity to sedative effects, PKCε−/− compared to wild-type: Example 3, earlier experiment, sedative doses of pentobarbital
PKCε−/− and PKCε+/+ mice [3] = settings: 2.0 g/kg i.p.
Protocol: Probes were perfused with artificial cerebrospinal fluid (aCSF), and animals were allowed to recover overnight. Mice were placed in open field chambers equipped with photobeams, and dialysis sample tubes were changed at 10 min intervals.

PKCε−/− and PKCε+/+ mice [4] = settings: 2-14% ethanol vs water, two-bottle choice
PKCε−/− and PKCε+/+ mice [5] = settings: two weeks liquid diet containing 5% ethanol; 2, 4, 6, 7 hours after removal
Protocol: Withdrawal seizures known as handling-induced convulsions (HIC) can be induced in mice by handling them after chronic exposure to ethanol. […] Withdrawal seizures were evaluated in 4 PKCε^+/+ and 4 PKCε^−/− mice following two weeks exposure to a fully nutritious liquid diet containing 5% ethanol (Dyets, Bethlehem, Pa.) as the only source of food or fluid. Seizures were videotaped at 2, 4, 6, and 7 hours following removal of ethanol from the cage and rated by observers who were blind to the genotype and drug exposure. Data were averaged across time-points and mice.

PKCε = experiment: muscimol/flunitrazepam-stimulated 36Cl− uptake in saponin-permeabilized microsacs treated with PKCε inhibitor peptide; assay type: biochemical, mouse; settings: for effect of peptide on the enhancing effect of flunitrazepam on muscimol-stimulated Cl− uptake: wild-type microsacs, 100 μM peptide, 1 μM muscimol and 0.1 μM flunitrazepam, 5 seconds
Protocol: GABAA receptor function was tested directly in wild-type and mutant mice. […] Following a five minute incubation in a shaking water bath at 34° C., chloride uptake in 200 μl membrane aliquots was initiated by the addition and immediate vortexing of 200 μl of a solution containing […] (0.2 μCi/ml of assay buffer). Drugs (muscimol, flunitrazepam, or ethanol) were added only in the ^36Cl^− solution. […] Hg) onto a 2.5 cm Whatman GF/C glass microfiber filter, using a Hoefer manifold (Hoefer Scientific, San Francisco, Calif.). The filters were washed with an additional 12 ml of cold assay buffer. Filters were submerged in Filtron-X (National Diagnostics) and the amount of radioactivity on the filters was determined by liquid scintillation spectrometry. Muscimol-dependent uptake was defined as the total amount of ^36Cl^− taken up while muscimol was present in the medium minus the amount of ^36Cl^− taken up when muscimol was not present.
Microsacs were then centrifuged again at 900× g for 15 min at 4° C. and re-suspended in assay buffer with protease inhibitors at 5 mg/ml immediately prior to assaying ^36Cl^− uptake.

[6] = ethanol 3.2, 3.6, 4.0 g/kg i.p.

## C[C@]12N[C@H](Cc3ccccc31)c1ccccc12 [MK-801]
PKCε−/− and PKCε+/+ mice [1]
  locomotor response (distance traveled), PKCε−/− compared to PKCε+/+: No differences

## CC(=O)[C@H]1CC[C@H]2[C@@H]3CC[C@H]4C[C@H](O)CC[C@]4(C)[C@H]3CC[C@]12C [allopregnanolone, 3alpha-hydroxy-5alpha-pregnan-20-one]
GABAA receptor; microsacs from PKCε+/+ mice
  activation of GABAA receptors (muscimol-stimulated Cl− uptake): comparatively little effect
GABAA receptor; microsacs from PKCε−/− mice
  activation of GABAA receptors (muscimol-stimulated Cl− uptake): substantially activate

## CN1C(=O)CN=C(c2ccccc2)c2cc(Cl)ccc21 [diazepam]
PKCε−/− and PKCε+/+ mice [1]
  locomotor response (distance traveled), PKCε−/− compared to PKCε+/+: significant increase in distance traveled
PKCε−/− and PKCε+/+ mice [2]; diazepam 20, 30, 40 mg/kg i.p., Example 6
  sensitivity to sedative effects (LORR), PKCε−/− compared to PKCε+/+: 30 fold

## CCO [ethanol]
PKCε−/− and PKCε+/+ mice [3]; PKCε+/+ mice
  extracellular dopamine levels in nucleus accumbens after administration: transient increase in dopamine levels
PKCε−/− and PKCε+/+ mice [3]; PKCε−/− mice
  extracellular dopamine levels in nucleus accumbens after administration: No change in dopamine levels
PKCε−/− and PKCε+/+ mice [4]
  reduction in ethanol preference, PKCε−/− compared to PKCε+/+: 75%
PKCε−/− and PKCε+/+ mice [1]; male mice, 2 g/kg ethanol i.p., 15-minute period
  increase in locomotor activity, PKCε−/− compared to PKCε+/+: two-fold greater increase
PKCε−/− and PKCε+/+ mice [2]; [6]
  LORR duration / sensitivity to sedative effects, PKCε−/− compared to wild-type: significantly higher LORR duration
PKCε−/− and PKCε+/+ mice [2]; ethanol 3.2, 3.6, 4.0 g/kg i.p., Example 5
  time required to regain righting reflex (LORR duration), PKCε−/− compared to PKCε+/+: two-fold increase
GABAA receptor; 1 μM muscimol with 20 mM ethanol or 0.1 μM flunitrazepam
  enhancement of muscimol-stimulated Cl− uptake, PKCε−/− microsacs compared to wild-type: two-fold greater
PKCε−/− and PKCε+/+ mice [5]
  reduction in withdrawal seizure severity (HIC score) compared to wildtype littermates: 50%

## NCc1cc(=O)[nH]o1 [muscimol]
PKCε−/− and PKCε+/+ mice [1]
  locomotor response (distance traveled), PKCε−/− compared to PKCε+/+: indistinguishable
GABAA receptor; 0-20 μM muscimol, 5 seconds
  Cl− uptake stimulated by direct agonist, knockout compared to wild-type: similar

## CCCC(C)C1(CC)C(=O)NC(=O)NC1=O (centres unmarked) [pentobarbital]
PKCε−/− and PKCε+/+ mice [2]; [6]
  LORR duration / sensitivity to sedative effects, PKCε−/− compared to wild-type: two-fold greater sensitivity
PKCε−/− and PKCε+/+ mice [2]; pentobarbital 30, 40, 50 mg/kg i.p., Example 6
  sensitivity to sedative effects (LORR), PKCε−/− compared to control mice: three-fold greater sensitivity

## S-εV1-2: scrambled version of the εV1-2 peptide, LSETKPAV
PKCε
  effect of peptide on the enhancing effect of flunitrazepam on muscimol-stimulated Cl− uptake: no effect

## εV1-2: selective inhibitor of PKCε, peptide EAVSLKPT
PKCε; microsacs from PKCε−/− mice
  effect of peptide on muscimol and flunitrazepam-stimulated 36Cl− uptake: did not affect
PKCε
  effect of peptide on the enhancing effect of flunitrazepam on muscimol-stimulated Cl− uptake: markedly increased
